How the values were obtained:
human α3β4 = target: T1, human α3β4 (Homo sapiens, UniProt P30926+P32297); experiment: Calcium flux inhibition, CHO-human α3β4 cells; type: cell-based
T1 construct: host or cells: CHO
Experimental: (§1) CHO-human α3β4 cells (obtained from ChanTest, Cleveland, Ohio, catalog #CT6021) were maintained in proliferative growth phase in Ham's F12 (VWR) with 10% fetal bovine serum (Invitrogen), 0.25 mg/mL geneticin; 0.4 mg/ml zeocin. The amino acid sequences encoded by the transfected cDNA constructs used to generate the CHO-human α3β4 cells are identical to the translated sequences for GenBank accession numbers NM_000743.2 and NM_000750.3, respectively.
(§2) Forty-eight hours prior to each experiment, cells were plated in 96 well black-walled, clear bottom plates (Corning, Corning, N.Y.) at 60-100,000 cells/well. On the day of the experiment, growth medium was gently removed, 200 μL 1×FLIPR Calcium 4 Assay reagent (Molecular Devices, Sunnyvale, Calif.) in assay buffer (20 mM HEPES, 7 mM TRIS base, 4 mM CaCl2, 5 mM D-glucose, 0.8 mM MgSO4, 5 mM KCl, 0.8 mM MgCl2, 120 mM N-methyl D-glucamine, 20 mM NaCl, pH 7.4 for SH-EP1-human α4β2 cells or 10 mM HEPES, 2.5 mM CaCl2, 5.6 mM D-glucose, 0.8 mM MgSO4, 5.3 mM KCl, 138 mM NaCl, pH 7.4 with TRIS-base for all other cell lines) was added to each well and plates were incubated at 37° C. for 1 hour (29° C. for the 29° C.-treated SH-EP1-human α4β2 cells). For inhibition studies, competitor compound (10 pM-10 μM) was added at the time of dye addition. The plates were removed from the incubator and allowed to equilibrate to room temperature. Plates were transferred to a FLIPR Tetra fluorometric imaging plate reader (Molecular Devices) for addition of compound and monitoring of fluorescence (excitation 485 nm, emission 525 nm). The amount of calcium flux was compared to both a positive (nicotine) and negative control (buffer alone). The positive control was defined as 100% response and the results of the test compounds were expressed as a percentage of the positive control. For inhibition studies, the agonist nicotine was used at concentrations of 1 μM for SH-EP1-human α4β2 treated at 29° C. (HS), 10 μM for SH-EP1-human α4β2 maintained at 37° C. (LS), and 20 μM for SH-SY5Y cells or CHO_human α3β4.

Nicotinic, human α4β2 = Nicotinic, human α4β2 (Homo sapiens, UniProt P17787+P43681); experiment: Competition binding, human α4β2 nicotinic receptor ([3H]nicotine)
Experimental: (§3) SH-EP1-human α4β2 (Eaton et al., 2003), cell lines were obtained from Dr. Ron Lukas (Barrow Neurological Institute). Cells were maintained in proliferative growth phase in Dulbecco's modified Eagle's medium (Invitrogen, Carlsbad, Calif.) with 10% horse serum (Invitrogen), 5% fetal bovine serum (HyClone, Logan Utah), 1 mM sodium pyruvate, 4 mM L-glutamine. For maintenance of stable transfectants, the α4β2 cell media was supplemented with 0.25 mg/mL zeocin and 0.13 mg/mL hygromycin B.
(§4) Cells were harvested in ice-cold PBS, pH 7.4, then homogenized with a Polytron (Kinematica GmbH, Switzerland). Homogenates were centrifuged at 40,000 g for 20 minutes (4° C.). The pellet was re-suspended in PBS and protein concentration determined using the Pierce BCA Protein Assay kit (Pierce Biotechnology, Rockford, Ill.).
(§5) Binding to nicotinic receptors was assayed on membranes using standard methods adapted from published procedures (Lippiello and Fernandes 1986; Davies et al., 1999). In brief, membranes were reconstituted from frozen stocks and incubated for 2 h on ice in 150 μl assay buffer (50 mM Tris, 154 mM NaCl, pH 7.4) in the presence of competitor compound (0.001 nM to 100 μM) and radioligand. [^3H]-nicotine (L-(−)-[N-methyl-^3H]-nicotine, 69.5 Ci/mmol, Perkin-Elmer Life Sciences, Waltham, Mass.) was used for human α4β2 binding studies. [^3H]-epibatidine (52 Ci/mmol, Perkin-Elmer Life Sciences) was used for binding studies at the other nicotinic receptor subtypes. Incubation was terminated by rapid filtration on a multimanifold tissue harvester (Brandel, Gaithersburg, Md.) using GF/B filters presoaked in 0.33% polyethyleneimine (w/v) to reduce non-specific binding. Filters were washed 3 times with ice-cold assay buffer and the retained radioactivity was determined by liquid scintillation counting.
(§6) Binding data were expressed as percent total control binding. Replicates for each point were averaged and plotted against the log of drug concentration. The IC50 (concentration of the compound that produces 50% inhibition of binding) was determined by least squares non-linear regression using GraphPad Prism software (GraphPAD, San Diego, Calif.). Ki was calculated using the Cheng-Prusoff equation (Cheng and Prusoff, 1973).

Nicotinic, human α3β4 = target: T2, Nicotinic, human α3β4 (Homo sapiens, UniProt P30926+P32297); experiment: Competition binding, human α3β4 nicotinic receptor (CHO human α3β4 membranes)
T2 construct: host or cells: CHO
Experimental: as §1, §4, §5, §6

human α4β2 (LS) = human α4β2 (LS) (Homo sapiens, UniProt P17787+P43681); experiment: Calcium flux inhibition, SH-EP1-human α4β2 maintained at 37° C. (LS); type: cell-based
Experimental: as §3
as §2, with “For inhibition studies, the agonist nicotine was used at concentrations of 1 μM for SH-EP1-human α4β2 treated at 29° C. (HS), 10 μM for SH-EP1-human α4β2 maintained at 37° C.” left out

human α4β2 (HS) = human α4β2 (HS) (Homo sapiens, UniProt P17787+P43681); experiment: Calcium flux inhibition, SH-EP1-human α4β2 treated at 29° C. (HS); type: cell-based
Experimental: as §3, §2

Nicotinic, human α7 = target: T3, Nicotinic, human α7 (Homo sapiens, UniProt P36544); experiment: Competition binding, human α7 nicotinic receptor (CHO human α7 membranes); conditions: [3H]TC-12018 0.5 nM
T3 construct: host or cells: CHO
Experimental: as §1, with “α7” for “α3β4”, “#CT6201)” for “#CT6021)”, “NM_000746.4 (α7)” for “NM_000743.2”, “NM_024557.4 (hRIC3).” for “NM_000750.3, respectively.”
as §4
Binding to nicotinic receptors was assayed on membranes using standard methods adapted from published procedures (Lippiello and Fernandes 1986; Davies et al., 1999). […] Filters were washed 3 times with ice-cold assay buffer and the retained radioactivity was determined by liquid scintillation counting.
Binding data were expressed as percent total control binding. […] Ki was calculated using the Cheng-Prusoff equation (Cheng and Prusoff, 1973).

CC[C@@]12CCC[C@]1(NC)[C@H]1CC[C@@H]2C1
IC50 (human α3β4): 0.17 µM
Human CHO α3β4 Ca Flux Imax (human α3β4; nicotine 20 μM): 97 % inh
Ki (Nicotinic, human α4β2): 26 µM
Ki (Nicotinic, human α3β4): 56 µM
IC50 (human α4β2 (LS)): 5 µM
Emax (human α4β2 (LS); read-out: Human α4β2 Ca Flux Imax [37C/HS]): 93%
IC50 (human α4β2 (HS)): 0.6 µM
Human α4β2 Ca Flux Imax [29C/HS] (human α4β2 (HS); 29° C.-treated cells (HS), nicotine 1 μM): 98 % inh
Ki (Nicotinic, human α7): 79 µM

— patent US20140288185A1, “NICOTINIC RECEPTOR NON-COMPETITIVE MODULATORS” (Targacept, Inc., priority 2011, published 2014)
